From patent publication US5049551A, “5-fluorouracil, 2'-deoxy-5-fluorouridine and 1-carbomoyl-5-fluorouracil compounds” (UBE Industries, Ltd., priority 1989, dated 1991)

Tests used:
[1] = background; cited from earlier work
[2] = Acute toxicity, oral, Pharmacological test example 3; conditions: in vivo, 7 week-old BDF2 female mouse, 21 days after administration, read-out: ID50 (LD50 from mortality)
Description: The compounds of the present invention obtained in Examples 4 and 7 were orally administered to 7 week-old BDF2 female mouse (10 mice per group). After 21 days from the administration, mortality of the mice was judged and LD50 value was evaluated from mortality according to the Richfield-Wilcokson method.

KB cell [3] = test: Cell proliferation inhibition, KB cells, Pharmacological test example 1; format: cell-based; conditions: Homo sapiens, 2×10^4 planted, compound added after 12 hours, 5 days culture, read-out: IC50 (50% cell proliferation inhibiting concentration)
KB cell [4] = test: Cell proliferation inhibition, KB cells, Pharmacological test example 2; format: cell-based; conditions: Homo sapiens, 5×10^3 planted, compound added after 24 hours, 5 days culture, read-out: IC50 (50% cell proliferation inhibiting concentration)
Description: To a microwell having 9 holes were planted KB cell with 5×10^3, respectively, and after 24 hours, the compound of the present invention obtained in Example 7 and 5-fluorouracil were added. After cultivating for 5 days, the number of cells were measured and from a cell proliferation inhibiting ratio-concentration curve, 50% cell proliferation inhibiting concentration (IC50 value) at which the inhibiting ratio becomes 50% was evaluated.

Structure (SMILES): O=c1[nH]c(=O)n(C2CCCO2)cc1F (centres unmarked) [Tegafur, 1-(2-tetrahydrofulyl)-5-fluorouracil]
- antitumor effects compared with 5-fluorouracil [1]: inferior to that of 5-fluorouracil

Structure (SMILES): O=c1[nH]cc(F)c(=O)[nH]1 [5-Fluorouracil, 5-fluorouracil]
- LD50 at 504 h [2]: 928 mg/kg
- antitumor activity [1]: insufficient
- toxicity [1]: potent toxicity
- IC50 (KB cell [3]): 17700 nM
- IC50 (KB cell [4]): 750 nM

Structure (SMILES): CCCC(CCC)C(=O)NCC(=O)OC[C@H]1O[C@@H](n2cc(F)c(=O)[nH]c2=O)[C@H](OC(=O)CNC(=O)C(CCC)CCC)[C@@H]1OC(=O)CNC(=O)C(CCC)CCC [Example 1, 2',3',5'-tris-O-[N-(2-n-propyl-n-pentanoyl)-glycyl]-5-fluorouridine]
- LD50 at 504 h [2]: ≥ 5000 mg/kg
- IC50 (KB cell [3]): 2000 nM

Structure (SMILES): CCCCCCNC(=O)n1cc(F)c(=O)[nH]c1=O [Carmofur, 1-n-hexylcarbamoyl-5-fluorouracil]
- antitumor effects compared with 5-fluorouracil [1]: inferior to that of 5-fluorouracil

Structure (SMILES): C[C@H]1O[C@@H](n2cc(F)c(=O)[nH]c2=O)[C@H](O)[C@@H]1O [Doxifluridine, 5'-deoxy-5-fluorouridine]
- antitumor effects compared with 5-fluorouracil [1]: inferior to that of 5-fluorouracil

Structure (SMILES): CCCC(CCC)C(=O)NCC(=O)OC[C@H]1O[C@@H](n2cc(F)c(=O)[nH]c2=O)[C@H](O)[C@@H]1OC(=O)CNC(=O)C(CCC)CCC [Example 4, 3',5'-bis-O-[N-(2n-propyl-n-pentanoyl)-glycyl]-5-fluorouridine]
- LD50 at 504 h [2]: ≥ 3000 mg/kg
- IC50 (KB cell [3]): 1800 nM

Structure (SMILES): CCCC(CCC)C(=O)NCC(=O)NCCCCCCNC(=O)n1cc(F)c(=O)[nH]c1=O [Example 7, 1-[6-[N-(2-n-propyl-n-pentanoyl)glycyl]amino-n-hexylcarbamoyl]-5-fluorouracil]
- LD50 at 504 h [2]: ≥ 1000 mg/kg
- IC50 (KB cell [4]): 660 nM
